From patent publication US20180042919A1, “PARP Inhibitors for the Treatment of Major Depressive Disorder and Related Conditions” (East Tennessee State University Research Foundation, priority 2016, published 2018)

What was measured:
Assay type in all cases: in vivo, rat
Male Sprague-Dawley rats [1] = experiment: Porsolt swim test (forced swim stress test)
Excerpt: Laboratory Animals: The use of animals for this study was approved by the University Committee on Animal Care at East Tennessee State University. All rats were ordered from Envigo, Inc. (Indianapolis, Ind., USA). Male Sprague-Dawley rats (225-250 g upon arrival) were used as subjects in the Porsolt swim test and were socially housed in groups of 2-3 per cage. Rats used as ‘intruders’ in the social defeat paradigm were individually housed and provided enrichment per the NIH Guidelines for the Care and Use of Animals. Intruder rats were male Sprague-Dawley rats (225-250 g). In addition, a total of 14 female Sprague-Dawley rats weighing 175-199 g upon arrival were obtained for the social defeat paradigm and these rats were socially housed for 6 days in the animal colony prior to fallopian tube ligature, performed as previously described. (Szebeni et al., 2016). Sixteen male Long-Evans hooded rats weighing 250-275 g upon arrival were used as ‘residents’ in the social defeat paradigm. A climate-controlled vivarium was utilized and animals were kept on a 12 h on/12 off light/dark cycle. Porsolt swim test: Different groups of animals were tested in the Porsolt swim test. Rats were treated using the same drug treatment regimen as with the SDS/CUS paradigm, except as noted in the combined drug treatments as noted in the Results. On the eighth day of drug treatment, all animals began behavioral testing in the Porsolt swim test, also known as the forced swim stress test. All animals were tested in black cylinders measuring 36 cm in diameter, and these cylinders were filled with water of 23-25° C. following procedures as reviewed previously (Bogdanova et al., 2013), consistent with the original procedure of Porsolt and coworkers (Porsolt et al., 1978). All animals were given a pre-swim exposure test on the first day of testing, 24 h before the swim test session the following day. On the first day of testing, animals were exposed to the water for 15 min, and on the second day were given a 5 min trial. The two dependent measures used for forced swim stress was the latency to first immobility episode (immobility lasting >5 s) and the total immobility time over the 5 min period, both recorded on the second day of testing. All movements of the animal were recorded by behavioral scanning software (ANY-maze, Stoelting Co., Wood Dale, Ill., USA). Drug administration: All drugs used in the study, 3-aminobenzamide (Product no. A0788; 3-AB), 5-AIQ hydrochloride (Product no. […] F132), were obtained from Sigma-Aldrich, Inc. (St. Louis, Mo., USA). Statistical analysis: A Grubb's test was used to remove statistical outliers from each dataset prior to analyses. Statistical analyses were otherwise performed as indicated using IBM SPSS Statistics (version 23.0) and data were graphed using GraphPad Prism (version 5.0b, GraphPad Software, La Jolla, Calif.). An independent sample t-test was used to analyze data generated when only two groups were analyzed. An analysis of variance (ANOVA) was used to test multiple group comparisons. For post hoc statistical comparisons, a Bonferroni-correction was applied (as noted) to limit Type I error in multiple post-hoc comparisons. For the combined drug treatment experiment, ANOVA was followed by a Dunnett's Multiple Comparison test that focused comparisons of drug treatment groups to the vehicle control group. All data are expressed as mean±standard error of the mean.

Male Sprague-Dawley rats [2] = experiment: Sucrose preference in rats exposed to repeated social defeat stress plus chronic unpredictable stress; settings: 2 h prior to social defeat, vs stressed rats treated with vehicle
Procedure: (§1) Social Defeat Stress (SDS): SDS was induced as described previously (Covington and Miczek, 2001; Szebeni et al., 2016). Briefly, Long-Evans hooded rats (‘residents’) were each mated with a female (ligated) rat for a 7-day period. On the eighth day and after removal of the female, an ‘intruder’ rat was placed into the cage for a 5 min period and dominance was established by the resident. Defeat was produced between 0900 and 1000 h daily for 10 consecutive days. Control rats not exposed to defeat were handled each day during this same time period.
(§2) Chronic unpredictable stress (CUS): CUS was performed after SDS on the same day, but at random times either during the day or evening as previously described (Bondi et al., 2008; Szebeni et al., 2016). Different stressors were randomly arranged and occurred at random times during the light or dark cycle of each day for 10 consecutive days. […]
Sucrose Preference: Sucrose preference was performed during the final three days of induction of social defeat stress (days 8-10), using a procedure based on that of D'Aquila et al. (1997). […] Amounts of sucrose consumed were calculated as percentages of the total amount of fluid consumed during the 2 h period on each of the 3 days of testing. […] The preference of sucrose over water was used as a measure of animal's sensitivity to reward and expressed as a percent. […]

Male Sprague-Dawley rats [3] = experiment: Social interaction test in rats exposed to repeated social defeat stress plus chronic unpredictable stress
Procedure: as §1
as §2, with “days. All rats were exposed twice to each of 5 different stressors, which included a 30-min restraint, a 1-h shaking/crowding, 10-min cold water (18° C.) swim, a 15-min warm water swim (25° C.) and a 24-h tipped cage.” for “days.”
Social interaction test: The social interaction test was performed 24 h after the last social defeat stress on day 11 of behavioral testing. […] The amount of time spent in a defined interaction zone close to the metal divider was measured using ANYmaze video tracking (Stoelting Co., Wood Dale Ill., USA). […]

[4] = third experiment, 4 mg/kg i.p. 3 times over 24 h, alone, Dunnett's test vs vehicle
[5] = third experiment, 2.5 mg/kg i.p. 3 times over 24 h, alone, Dunnett's test vs vehicle

Nc1cccc2c(=O)[nH]ccc12 [5-AIQ, 5-aminoisoquinolinone] was tested, and the latency to immobility (Male Sprague-Dawley rats [1]; second experiment, 0.3 mg/kg i.p. once daily for 10 days, vs vehicle control group) was “did not significantly differ” and the immobility time (Male Sprague-Dawley rats [1]; second experiment, 0.3 mg/kg i.p. once daily for 10 days, vs vehicle group) was “significantly less time immobile”.
For NC(=O)c1cccc(N)c1 [3-AB, 3-aminobenzamide], the sucrose preference (Male Sprague-Dawley rats [2]; 40 mg/kg i.p. daily for 10 days, p=0.024) was “significantly higher”, the time spent immobile (Male Sprague-Dawley rats [1]; preliminary experiment, 40 mg/kg i.p. daily for 10 days, 2 h after injection, vs saline-treated controls, t=2.36, p<0.05) was “significantly decreased” and the latency to immobility (Male Sprague-Dawley rats [1]; preliminary experiment, 40 mg/kg i.p. daily for 10 days, 2 h after injection, vs saline-treated controls, t=5.56, p<0.001) was “significant increase”. For the same compound, the latency to immobility (Male Sprague-Dawley rats [1]; second experiment, 0.4 mg/kg i.p. once daily for 10 days, vs vehicle control group) was “did not significantly differ”, the latency to immobility (Male Sprague-Dawley rats [1]; second experiment, 4 mg/kg i.p. once daily for 10 days, vs vehicle control group) was “did not significantly differ” and the latency to immobility (Male Sprague-Dawley rats [1]; second experiment, 40 mg/kg i.p. injections 23.5, 5 and 1 h before testing (3-AB×3), vs vehicle control group) was “did not significantly differ”. For the same compound, the immobility time (Male Sprague-Dawley rats [1]; second experiment, 40 mg/kg i.p. injections 23.5, 5 and 1 h before testing (3-AB×3), vs vehicle group) was “significantly less time immobile”, the immobility time (Male Sprague-Dawley rats [1]; second experiment, 40 mg/kg i.p. once daily for 10 days, vs vehicle group) was “significantly less time immobile” and the latency to immobility (Male Sprague-Dawley rats [1]; second experiment, 40 mg/kg i.p. once daily for 10 days, vs vehicle-treated control rats) was “significantly greater”. For the same compound, the immobility time (Male Sprague-Dawley rats [1]; [4]) was “did not significantly affect”, the latency to immobility (Male Sprague-Dawley rats [1]; [4]) was “did not significantly affect” and the “time spent in the interaction zone” value (Male Sprague-Dawley rats [3]; 40 mg/kg i.p. daily for 10 days, vs vehicle-treated rats exposed to stressors, p=0.014) was “significantly greater”.
In the case of CNCCC(Oc1ccc(C(F)(F)F)cc1)c1ccccc1 (centres unmarked) [fluoxetine], the sucrose preference (Male Sprague-Dawley rats [2]; 10 mg/kg i.p. daily for 10 days, p=0.005) is reported as “significantly higher”, the immobility time (Male Sprague-Dawley rats [1]; second experiment, 10 mg/kg i.p. injections 23.5, 5 and 1 h before testing, vs vehicle group) is reported as “significantly less time immobile” and the latency to immobility (Male Sprague-Dawley rats [1]; second experiment, 10 mg/kg i.p. injections 23.5, 5 and 1 h before testing, vs vehicle-treated control rats) is reported as “significantly greater”. The immobility time (Male Sprague-Dawley rats [1]; [5]) was “did not significantly affect”, the latency to immobility (Male Sprague-Dawley rats [1]; [5]) was “did not significantly affect” and the “time spent in the interaction zone” value (Male Sprague-Dawley rats [3]; 10 mg/kg i.p. daily for 10 days, difference vs vehicle-treated rats exposed to stress, appeared greater, p=0.073) was “did not reach statistical significance”.
